Experimental data from PubChem BioAssay AID1963864 (Molecular Pharmacology Branch, DTP, NCI, 2024).

System: KRAS PDC multicell spheroid viability
Test: Anticancer human tumor 521955-158-R6-J3-PDC patient-derived pancreatic carcinoma cell line growth inhibition [KRAS2]
Conditions: for IC50: curve of first compound; for viability, T/C: stronger effect = lower value; active means viability on the fitted dose curve at most 10% of control; inactive means the rest
Summary of the method: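 Combination screen of spheroid viability in tumor-cell co-cultures with endothelial (HUVEC) and mesenchymal stem cell stroma. Each agent was tested in half-log dilutions, topping at clinical Cmax or at 10 microM without a known Cmax.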

[1] = second compound 0.1 µM, first compound 0.000316 µM
[2] = second compound 0.1 µM, first compound 0.001 µM
[3] = second compound 0.1 µM, first compound 0.00316 µM
[4] = second compound 0.1 µM, first compound 0.01 µM
[5] = second compound 0.1 µM, first compound 0.0316 µM
[6] = second compound 0.316 µM, first compound 0.000316 µM
[7] = second compound 0.316 µM, first compound 0.001 µM
[8] = second compound 0.316 µM, first compound 0.00316 µM
[9] = second compound 0.316 µM, first compound 0.01 µM
[10] = second compound 0.316 µM, first compound 0.0316 µM
[11] = second compound 1 µM, first compound 0.000316 µM
[12] = second compound 1 µM, first compound 0.001 µM
[13] = second compound 1 µM, first compound 0.00316 µM
[14] = second compound 1 µM, first compound 0.01 µM
[15] = second compound 1 µM, first compound 0.0316 µM
[16] = second compound 3.16 µM, first compound 0.000316 µM
[17] = second compound 3.16 µM, first compound 0.001 µM
[18] = second compound 3.16 µM, first compound 0.00316 µM
[19] = second compound 3.16 µM, first compound 0.01 µM
[20] = second compound 3.16 µM, first compound 0.0316 µM
[21] = second compound 10 µM, first compound 0.000316 µM
[22] = second compound 10 µM, first compound 0.001 µM
[23] = second compound 10 µM, first compound 0.00316 µM
[24] = second compound 10 µM, first compound 0.01 µM
[25] = second compound 10 µM, first compound 0.0316 µM
[26] = second compound 0.1 µM, first compound 0.1 µM
[27] = second compound 0.316 µM, first compound 0.1 µM
[28] = second compound 1 µM, first compound 0.1 µM
[29] = second compound 3.16 µM, first compound 0.1 µM
[30] = second compound 10 µM, first compound 0.1 µM
[31] = second compound 0.1 µM, first compound 0.316 µM
[32] = second compound 0.1 µM, first compound 1 µM
[33] = second compound 0.1 µM, first compound 3.16 µM
[34] = second compound 0.1 µM, first compound 10 µM
[35] = second compound 0.316 µM, first compound 0.316 µM
[36] = second compound 0.316 µM, first compound 1 µM
[37] = second compound 0.316 µM, first compound 3.16 µM
[38] = second compound 0.316 µM, first compound 10 µM
[39] = second compound 1 µM, first compound 0.316 µM
[40] = second compound 1 µM, first compound 1 µM
[41] = second compound 1 µM, first compound 3.16 µM
[42] = second compound 1 µM, first compound 10 µM
[43] = second compound 3.16 µM, first compound 0.316 µM
[44] = second compound 3.16 µM, first compound 1 µM
[45] = second compound 3.16 µM, first compound 3.16 µM
[46] = second compound 3.16 µM, first compound 10 µM
[47] = second compound 10 µM, first compound 0.316 µM
[48] = second compound 10 µM, first compound 1 µM
[49] = second compound 10 µM, first compound 3.16 µM
[50] = second compound 10 µM, first compound 10 µM
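Further: drug exposure lasted seven days.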
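Wherever viability, T/C is given: 100% = DMSO vehicle wells and lower means fewer viable cells.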

CC(=O)Nc1cccc(-n2c(=O)n(C3CC3)c(=O)c3c(Nc4ccc(I)cc4F)n(C)c(=O)c(C)c32)c1 + CC1OCC2(CCN(c3cnc(Sc4ccnc(N)c4Cl)c(N)n3)CC2)C1N
2.24 nM: IC50 (second compound 10 µM)
inactive: viability, T/C (second compound 0.1 µM, first compound 0.0001 µM) 87.8% | viability, T/C [1] 82.8% | viability, T/C [2] 91.2% | viability, T/C [3] 83.5% | viability, T/C [4] 56.7% | viability, T/C [5] 44.6% | viability, T/C (second compound 0.316 µM, first compound 0.0001 µM) 83.2% | viability, T/C [6] 85.7% | viability, T/C [7] 77.2% | viability, T/C [8] 65% | viability, T/C [9] 55.7% | viability, T/C [10] 33.7% | viability, T/C (second compound 1 µM, first compound 0.0001 µM) 103% | viability, T/C [11] 87.6% | viability, T/C [12] 80.1% | viability, T/C [13] 55.3% | viability, T/C [14] 41.8% | viability, T/C [15] 27.8% | viability, T/C (second compound 3.16 µM, first compound 0.0001 µM) 105% | viability, T/C [16] 90.7% | viability, T/C [17] 62.8% | viability, T/C [18] 47% | viability, T/C [19] 34.9% | viability, T/C [20] 28.6% | viability, T/C (second compound 10 µM, first compound 0.0001 µM) 85.6% | viability, T/C [21] 70.9% | viability, T/C [22] 67.4% | viability, T/C [23] 42.3% | viability, T/C [24] 30.3% | viability, T/C [25] 23%
18.9 nM: IC50 (second compound 0.1 µM)
5.43 nM: IC50 (second compound 1 µM)
2.44 nM: IC50 (second compound 3.16 µM)
12.5 nM: IC50 (second compound 0.316 µM)

CC(C)n1nc(-c2ccc3oc(N)nc3c2)c2c(N)ncnc21 + CC1OCC2(CCN(c3cnc(Sc4ccnc(N)c4Cl)c(N)n3)CC2)C1N
inactive: viability, T/C [1] 89% | viability, T/C [2] 85.8% | viability, T/C [3] 74% | viability, T/C [4] 65.3% | viability, T/C [5] 57.4% | viability, T/C [26] 50% | viability, T/C [6] 92.3% | viability, T/C [7] 84.2% | viability, T/C [8] 71.7% | viability, T/C [9] 65.6% | viability, T/C [10] 56.2% | viability, T/C [27] 44.3% | viability, T/C [11] 88.3% | viability, T/C [12] 86.5% | viability, T/C [13] 74.2% | viability, T/C [14] 66.8% | viability, T/C [15] 56% | viability, T/C [28] 44.1% | viability, T/C [16] 112% | viability, T/C [17] 113% | viability, T/C [18] 88.8% | viability, T/C [19] 70.7% | viability, T/C [20] 51.3% | viability, T/C [29] 40.2% | viability, T/C [21] 99.1% | viability, T/C [22] 101% | viability, T/C [23] 89.7% | viability, T/C [24] 63.1% | viability, T/C [25] 47.3% | viability, T/C [30] 38.3%
33.5 nM: IC50 (second compound 3.16 µM)
> 100 nM: IC50 (second compound 0.1 µM)
55.7 nM: IC50 (second compound 1 µM)
56.3 nM: IC50 (second compound 0.316 µM)
23.5 nM: IC50 (second compound 10 µM)

CC1(C)CCC(CN2CCN(c3ccc(C(=O)NS(=O)(=O)c4ccc(NCC5CCOCC5)c([N+](=O)[O-])c4)c(Oc4cnc5[nH]ccc5c4)c3)CC2)=C(c2ccc(Cl)cc2)C1 + CC1OCC2(CCN(c3cnc(Sc4ccnc(N)c4Cl)c(N)n3)CC2)C1N
5820 nM: IC50 (second compound 0.316 µM)
active: viability, T/C [50] 3.41%
7010 nM: IC50 (second compound 0.1 µM)
inactive: viability, T/C [5] 96% | viability, T/C [26] 89.7% | viability, T/C [31] 95.3% | viability, T/C [32] 77.6% | viability, T/C [33] 70.5% | viability, T/C [34] 41.3% | viability, T/C [10] 86.2% | viability, T/C [27] 98.2% | viability, T/C [35] 89% | viability, T/C [36] 87% | viability, T/C [37] 62% | viability, T/C [38] 39.3% | viability, T/C [15] 102% | viability, T/C [28] 94.7% | viability, T/C [39] 103% | viability, T/C [40] 99% | viability, T/C [41] 71.1% | viability, T/C [42] 27.3% | viability, T/C [20] 115% | viability, T/C [29] 120% | viability, T/C [43] 121% | viability, T/C [44] 116% | viability, T/C [45] 64.2% | viability, T/C [46] 13.1% | viability, T/C [25] 107% | viability, T/C [30] 109% | viability, T/C [47] 114% | viability, T/C [48] 107% | viability, T/C [49] 44.3%
4360 nM: IC50 (second compound 3.16 µM)
2840 nM: IC50 (second compound 10 µM)
5510 nM: IC50 (second compound 1 µM)

COC(=O)c1ccc2c(C(=Nc3ccc(N(C)C(=O)CN4CCN(C)CC4)cc3)c3ccccc3)c(O)[nH]c2c1 + CC1OCC2(CCN(c3cnc(Sc4ccnc(N)c4Cl)c(N)n3)CC2)C1N
inactive: viability, T/C [5] 79.8% | viability, T/C [26] 88.5% | viability, T/C [31] 108% | viability, T/C [32] 114% | viability, T/C [33] 40% | viability, T/C [10] 82.5% | viability, T/C [27] 102% | viability, T/C [35] 110% | viability, T/C [36] 113% | viability, T/C [37] 23.6% | viability, T/C [15] 106% | viability, T/C [28] 104% | viability, T/C [39] 111% | viability, T/C [40] 95.6% | viability, T/C [41] 25.5% | viability, T/C [20] 101% | viability, T/C [29] 120% | viability, T/C [43] 103% | viability, T/C [44] 99.2% | viability, T/C [45] 25.4% | viability, T/C [25] 94.8% | viability, T/C [30] 94.8% | viability, T/C [47] 83.7% | viability, T/C [48] 72.2%
2150 nM: IC50 (second compound 0.316 µM) | IC50 (second compound 3.16 µM)
2590 nM: IC50 (second compound 0.1 µM)
active: viability, T/C [34] 1.22% | viability, T/C [38] 0.76% | viability, T/C [42] 0.47% | viability, T/C [46] 0.29% | viability, T/C [49] 6.64% | viability, T/C [50] 2.18%
1470 nM: IC50 (second compound 10 µM)
2120 nM: IC50 (second compound 1 µM)

COc1cc(Nc2ncc3c(n2)-c2ccc(Cl)cc2C(c2c(F)cccc2OC)=NC3)ccc1C(=O)O + CC1OCC2(CCN(c3cnc(Sc4ccnc(N)c4Cl)c(N)n3)CC2)C1N
> 10000 nM: IC50 (second compound 0.1 µM) | IC50 (second compound 0.316 µM) | IC50 (second compound 1 µM) | IC50 (second compound 3.16 µM) | IC50 (second compound 10 µM)
inactive: viability, T/C [5] 101% | viability, T/C [26] 101% | viability, T/C [31] 99.8% | viability, T/C [32] 82.2% | viability, T/C [33] 99.8% | viability, T/C [34] 95.8% | viability, T/C [10] 97.1% | viability, T/C [27] 95.1% | viability, T/C [35] 95.6% | viability, T/C [36] 86.6% | viability, T/C [37] 81.3% | viability, T/C [38] 87.9% | viability, T/C [15] 102% | viability, T/C [28] 98.5% | viability, T/C [39] 88.1% | viability, T/C [40] 91.7% | viability, T/C [41] 90.9% | viability, T/C [42] 98% | viability, T/C [20] 103% | viability, T/C [29] 105% | viability, T/C [43] 97.9% | viability, T/C [44] 103% | viability, T/C [45] 104% | viability, T/C [46] 93.4% | viability, T/C [25] 113% | viability, T/C [30] 101% | viability, T/C [47] 103% | viability, T/C [48] 96.5% | viability, T/C [49] 103% | viability, T/C [50] 91.5%

COc1cc2nccc(Oc3ccc(NC(=O)C4(C(=O)Nc5ccc(F)cc5)CC4)cc3)c2cc1OC + CC1OCC2(CCN(c3cnc(Sc4ccnc(N)c4Cl)c(N)n3)CC2)C1N
> 10000 nM: IC50 (second compound 0.1 µM) | IC50 (second compound 0.316 µM) | IC50 (second compound 1 µM) | IC50 (second compound 3.16 µM) | IC50 (second compound 10 µM)
inactive: viability, T/C [5] 93.7% | viability, T/C [26] 93.7% | viability, T/C [31] 89.3% | viability, T/C [32] 102% | viability, T/C [33] 105% | viability, T/C [34] 102% | viability, T/C [10] 97.5% | viability, T/C [27] 91% | viability, T/C [35] 89.3% | viability, T/C [36] 105% | viability, T/C [37] 108% | viability, T/C [38] 86.5% | viability, T/C [15] 116% | viability, T/C [28] 96.8% | viability, T/C [39] 108% | viability, T/C [40] 112% | viability, T/C [41] 90.7% | viability, T/C [42] 90% | viability, T/C [20] 115% | viability, T/C [29] 122% | viability, T/C [43] 118% | viability, T/C [44] 119% | viability, T/C [45] 103% | viability, T/C [46] 81.6% | viability, T/C [25] 112% | viability, T/C [30] 121% | viability, T/C [47] 111% | viability, T/C [48] 119% | viability, T/C [49] 80.6% | viability, T/C [50] 67.7%
